Reference: paper PMC11255867 (Protein Science : A Publication of the Protein Society, 2024)

Target: T1, Gaussia luciferase (GLuc) (Gaussia princeps (in: crustaceans), UniProt Q9BLZ2)
T1 sequence (Q9BLZ2 18-185): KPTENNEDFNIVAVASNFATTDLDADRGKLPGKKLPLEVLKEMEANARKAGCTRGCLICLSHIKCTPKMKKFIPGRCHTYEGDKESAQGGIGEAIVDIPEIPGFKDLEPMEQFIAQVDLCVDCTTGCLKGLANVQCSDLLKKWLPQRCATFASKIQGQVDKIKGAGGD
Experiment: SDS-PAGE adduct formation
Assay type: biochemical
Details: suicide inhibitor, covalent; oxidized without light; 20-fold molar excess, up to 24 h; 50 mM Tris-HCl pH 8.0

In the case of `O=c1c(Cc2ccco2)nc2c(Cc3ccccc3)[nH]c(-c3ccccc3)cn1-2` [furimazine], the “SDS-PAGE adduct formation; loss of luminescence with coelenterazine” value is reported as “FRZ is a suicide inhibitor of GLuc as it does not produce light with GLuc”.
